Assay results as given in EP0454459A2, “Sulfonylalkanoic acid amide derivatives” (TAISHO PHARMACEUTICAL CO. LTD, priority 1990, dated 1991).

What was measured:
male Wistar rats [1] = test: Inhibition test of the radiofrequency decerebrate rigidity; type: in vivo; settings: inhibition time of hindlimb rigidity, intravenously, 5 mg/kg, dissolved in propylene glycol
Procedure: The rigidity animals were prepared according to the method of Ono et al. [Gen. Pharm., vol. 18, pages 57 - 59 (1987)].
Four male Wistar rats weighing 250 to 350 g were used for each group. The animals were anesthetized with ethyl ether and fixed on a brain stereotaxic apparatus to break the midbrain bilaterally (APO, V-3, L±1.5). Rigidity occurred gradually in the hindlimbs after discontinuation of ethyl ether anesthesia. The test drugs dissolved in propylene glycol were administered intravenously in a dose of 5 mg/kg (0.1 ml per 100 g of rat) to determine the inhibition time of the rigidity.

male Wistar rats [2] = test: Inhibition test of anemic decerebrate rigidity; type: in vivo; settings: inhibition time of forelimb rigidity, intravenously, 5 mg/kg, dissolved in polyethlene glycol 400
Procedure: The rigidity animals were prepared according to the method of Fukuda et al. [Japanese J. Pharmacol., vol. 24, pages 810 - 813 (1974)].
Four male Wistar rats weighing 250 to 350 g were used for each group.
The animal was incised on the cervical region under the ethyl ether anesthesia, and the common carotid arteries were ligated bilaterally. A trephined opening was made in the occipital bone and the basilar artery was coagulated using a bipolar electro-coagulator. Marked rigidity occurred on the forelimbs after discontinuation of the ethyl ether anesthesia. The test drugs dissolved in polyethlene glycol 400 were each administered intravenously in a dose of 5 mg/kg (0.1 ml per 100 g of rat) to determine the inhibition time of the rigidity.

male ICR mice [3] = test: Straub tail test (morphine-induced tail elevation); type: in vivo; settings: orally 100 mg/kg, 15 mg/kg morphine hydrochloride s.c. after 15 minutes, tail elevation determined after 30 minutes, positive when angle less than 45°
Procedure: The test was carried out according to the method of Ellis et al. [Neuropharmacology, vol. 13, pages 211 - 214 (1974)]. Five male ICR mice weighing 20 to 30 g were used for each group. The test drugs suspended in 0.4% aqueous carboxymethylcellulose solution were administered orally in a dose of 100 mg/kg (0.1 ml per 10 g of mouse). After 15 minutes, 15 mg/kg of morphine hydrochloride was administered subcutaneously, and after 30 minutes, the tail elevation was determined. The muscle relaxation activity was defined as positive when the angle of tail elevation from the horizontal was less than 45°. As a result, the inhibition ratio of Compounds 2, 4 and 8 were each 100%.

Acute toxicity test = type: in vivo, ICR mice; settings: mouse, in vivo, po; mice; p.o.; survivals observed 7 days after administration; read-out: LD₅₀ value
Procedure: (§1) Ten male ICR mice weighing 25 to 34 g were used. Compound 4 suspended in 0.4 aqueous carboxymethylcellulose solution was each administered orally to mice in a volume of 0.1 ml per 10 g of mice. The survivals were observed 7 days after administration.

male ICR mice [4] = test: Acute toxicity test; type: in vivo; settings: orally, dose of 1 g/kg, observed 7 days after administration
Procedure: as §1

SMILES | Inhibition Time (male Wistar rats [1]) [min] | Inhibition Time (male Wistar rats [2]) [min] | inhibition ratio (male ICR mice [3]) [%] | LD50 at 168 h (Acute toxicity test) [mg/kg] | death (male ICR mice [4])
CC(C(=O)NC1CC1)S(=O)(=O)c1ccc(Cl)cc1Cl (centres unmarked) [Compound 8, N-cyclopropyl-2-(2,4-dichlorophenylsulfonyl)propionamide] | 78.0 | 17.7 | 100 | – | –
CC(C(=O)NC1CC1)S(=O)(=O)c1ccc(F)cc1Cl (centres unmarked) [Compound 11] | 24.0 | – | – | – | –
CC(C(=O)NC1CC1)S(=O)(=O)c1ccccc1Br (centres unmarked) [Compound 4, N-cyclopropyl-2-(2-bromophenylsulfonyl)propionamide] | 37.0 | – | 100 | > 1000 | No death occurred
CC(C(=O)NC1CC1)S(=O)(=O)c1ccccc1Cl (centres unmarked) [Compound 2, N-cyclopropyl-2-(2-chlorophenylsulfonyl)propionamide] | 11.7 | 5.0 | 100 | – | –
